One assay relates to DU-145. Nature of the assay: Anticancer activity against human DU145 cells after 48 hrs by SRB assay. As to conditions: DU-145, 48 h. (In general: In SRB staining, fixed cells bind dye roughly in proportion to their protein.)
Assay [1] can be described thus: Inhibition of bovine tubulin polymerization after 20 mins by turbidimetrically.

The term GI50 denotes the concentration at which growth is held to half of that of the control. A high value points to lower sensitivity of the cells. One may read the pIC50 as the negative decadic logarithm of the IC50, by convention in mol/L. Read a low pIC50 as a high IC50.

The structures appear in SMILES notation. pIC50: −log10 of the molar value.

On to `COc1ccc(/C=C\c2cc(OC)c(OC)c(OC)c2)cc1O` [COMBRETASTATIN A4], for which, in the assay with DU-145, the GI50 worked out at 2 nM.

Compound `CC/C(=C(\c1ccccc1)c1ccc(OCCN(C)C)cc1)c1ccccc1` [TAMOXIFEN] had a pIC50 in assay [1] below 4.40.

The values are drawn from ChEMBL document CHEMBL1152587, “Application of the McMurry coupling reaction in the synthesis of tri- and tetra-arylethylene analogues as potential cancer chemotherapeutic agents” (Bioorg Med Chem, 2009).
